From publication PMC5028882, “Antiviral activities of peptide-based covalent inhibitors of the Enterovirus 71 3C protease” (Scientific Reports, 2016)
Entries after “also recorded” stand apart in the source; their conditions may differ. Read-outs that look alike come from different tables or passages of the source.

Key:
[1] = Parallel artificial membrane permeability assay (PAMPA); format: in vitro ADME; conditions: for Papp at 4 h, 50 μM: pH 7.4, 50 μM, 4 h incubation, read-out: Permeability (P) at pH 7.4
Method: PAMPA was conducted by GVK Biosciences (India) using Pion PAMPA Sandwich Plates (Pion Inc., USA). Briefly: test compounds were dissolved in buffer at pH 7.4 to make a 50 μM stock solution. 200 μL was then added to the donor compartment of the plate. The plate was inverted and 200 μL of buffer (pH 7.4) was added to the acceptor compartment. After incubation (4 hours), a 50 μL sample was analyzed by UV using a spectrophotometer. Experiments were conducted in triplicates. Compound permeability (P) was calculated using the formula:
where: CA = compound concentration in the acceptor compartment at 4 h, Ceq = compound concentration at equilibrium at 4 h, A = filter area (0.3 cm^2), VA = acceptor compartment volume (200 μL), VD = donor compartment volume (200 μL), t = incubation time (14,400 s). Compounds with a P value of <10 × 10^−6 cm.s^−1 are considered to have low permeability.

[2] = test system: Coxsackievirus A6 (CA6); experiment: Antiviral assay, Coxsackievirus A6-infected RD cells; format: cell-based; conditions: 100 nM and 1 μM, virus titre after 12 hours
Method: (§1) RD cells were infected with either Coxsackievirus A6 (CA6), Coxsackievirus A16 (CA16) (strain G-10, GenBank accession no. U05876), patient isolates of Coxsackievirus A6 (CA6), or Echovirus 7 (E7) and subjected to treatment with compound 9 at 100 nM or 1 μM or negative control 0.05% DMSO.
(§2) Human RD cells were cultured in DMEM/F-12 (Gibco) supplemented with 10% FBS (GE Healthcare) and the infection medium used for all infections and compound treatment contained was supplemented with 2% FBS. For the compound treatment assays, monolayers of RD cells were first infected with EV71 at a multiplicity of infection (MOI) of 1 for 1 hour at 37 °C, 5% CO2. The compounds were then introduced to the cells at different concentrations. Culture supernatant was collected at 12 hours post-treatment for determination of infectious virus titre by viral plaque assay. Each culture supernatant was 10-fold serially diluted and 100 μL was added, in triplicates, to a monolayer of RD cells in a 24-well format. The infection was allowed to proceed for 1 h at 37 °C, 5% CO2 before the virus was removed. The cells were then washed to remove unbound virus particles with PBS (pH 7.4) and overlaid with infection medium containing 0.5% agarose. […] Plaques that formed were counted visually and the infectious virus titre was calculated, expressed as the average number of PFU per milliliter (PFU/mL) of sample. […]

[3] = test system: Echovirus 7 (E7); experiment: Antiviral assay, Echovirus 7-infected RD cells; format: cell-based; conditions: 100 nM and 1 μM, virus titre after 12 hours
Method: as §1, §2

[4] = test system: EV71-infected human RD cells; experiment: Antiviral cellular assay, EV71-infected RD cells, virus titre by plaque assay; format: cell-based, human enterovirus 71 (EV71); conditions: for EC50: Enterovirus A, read-out: EC50 for EV71 infections; for Antiviral activity on EV71-infected RD cells (in words): virus titre reduction, up to 5 μM, 12 h
Method: Human RD cells were cultured in DMEM/F-12 (Gibco) supplemented with 10% FBS (GE Healthcare) and the infection medium used for all infections and compound treatment contained was supplemented with 2% FBS. For the compound treatment assays, monolayers of RD cells were first infected with EV71 at a multiplicity of infection (MOI) of 1 for 1 hour at 37 °C, 5% CO2. The compounds were then introduced to the cells at different concentrations. Culture supernatant was collected at 12 hours post-treatment for determination of infectious virus titre by viral plaque assay. Each culture supernatant was 10-fold serially diluted and 100 μL was added, in triplicates, to a monolayer of RD cells in a 24-well format. The infection was allowed to proceed for 1 h at 37 °C, 5% CO2 before the virus was removed. The cells were then washed to remove unbound virus particles with PBS (pH 7.4) and overlaid with infection medium containing 0.5% agarose. The cells were incubated for 48 hours at 37 °C before they were fixed with 4% paraformaldehyde and stained with crystal violet. Plaques that formed were counted visually and the infectious virus titre was calculated, expressed as the average number of PFU per milliliter (PFU/mL) of sample. The 50% effective concentration, EC50, was determined for selected compounds by a non-linear regression graph fitting of the virus titre obtained at a minimum of 5 different compound concentrations and 0.05% DMSO was included as an untreated control.

[5] = test system: Coxsackievirus A16 (CA16); experiment: Antiviral assay, Coxsackievirus A16-infected RD cells; format: cell-based; conditions: 100 nM and 1 μM, virus titre after 12 hours
Method: as §1, §2

[6] = molecular target: T1, EV71 3C protease (Human enterovirus 71, UniProt Q66478); conditions: cited from earlier work; for IC50: EV71 3C protease (strain 5865/sin/000009), biochemical protease inhibition assay, read-out: Inhibitory Potency, IC50
T1 sequence (Q66478 1549-1731): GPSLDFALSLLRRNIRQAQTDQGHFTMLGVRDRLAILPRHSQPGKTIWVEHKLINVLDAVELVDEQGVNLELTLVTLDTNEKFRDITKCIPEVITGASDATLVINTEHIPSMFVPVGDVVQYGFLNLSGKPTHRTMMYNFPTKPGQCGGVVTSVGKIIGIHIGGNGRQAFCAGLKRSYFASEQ

[7] = molecular target: T1, EV71 3C protease; experiment: EV71 3C protease inhibition assay (chromogenic substrate succinyl-EALFQ-pNA); format: biochemical; conditions: EV71 3C protease 6 μM, 2 h preincubation at 25 °C, pH 7.0; read-out: Inhibitory Potency, IC50
Method: EV71 3C protease inhibition assays were based on a published procedure[7] and performed in a buffer containing Tris-HCl (50 mM), NaCl (150 mM), EDTA (1 mM), glycerol (10% v/v) and DTT (2 mM) at pH 7.0. The protease (6 μM) and varying inhibitor concentrations were incubated at 25 °C for 2 h. The final DMSO concentration was maintained at 2%. After that, the chromogenic peptide substrate succinyl-EALFQ-pNA (Peptides International, USA) was added to make a final concentration of 200 μM. The contents were incubated at 25 °C for 2 h. Absorbance at 405 nm was measured with a plate reader at 30 °C. All experiments were conducted in duplicates. IC50 values were derived by fitting the initial velocity against the log [inhibitor] using GraphPad Prism 5 software (USA).

Structure (SMILES) | Papp at 4 h, 50 μM [1] | Antiviral activity on EV71-infected RD cells (in words) [4] | IC50 [7] | other results
CCOC(=O)/C=C/[C@H](C[C@@H]1CCNC1=O)NC(=O)[C@@H](CC(=O)[C@@H](NC(=O)c1cc(C)on1)C(C)C)Cc1ccc(F)cc1 [Compound 1, Rupintrivir, reference compound] | 46.9 ± 4.7 ×10⁻⁶ cm/s | significant reduction in viral titre |  | Membrane permeability (in words) ([1]; pH 7.4): highly membrane permeable; Antiviral activity against Coxsackievirus A6 (in words) [2]: demonstrated antiviral activities; Antiviral activity against Echovirus 7 (in words) [3]: demonstrated antiviral activities; EC50 ([4]; EV71-infected RD cells, virus titre by plaque assay): 16 nM; Antiviral activity against Coxsackievirus A16 (in words) [5]: demonstrated antiviral activities; IC50 [6]: 7.3 ± 0.8 µM; Inhibition of EV71 3C protease (in words) ([6]; earlier reports): micromolar potency
CCOC(=O)/C=C/[C@H](C[C@@H]1CCNC1=O)NC(=O)[C@H](Cc1ccc(F)cc1)NC(=O)[C@@H](NC(=O)c1cc(C)on1)C(C)C [Compound 3] | 25.1 ± 3.6 ×10⁻⁶ cm/s | significantly less potent than Rupintrivir | 6.2 ± 0.6 µM | Fold less permeable than Rupintrivir ([1]; pH 7.4): approximately 2 fold
CCOC(=O)/C=C/[C@H](C[C@@H]1CCNC1=O)NC(=O)[C@@H](CC(=O)[C@@H](NC(=O)c1cccnn1)C(C)C)Cc1ccc(F)cc1 [Compound 4, ethyl-(S,E)-4-(2R,5S)-2-(4-fluorobenzyl)-6-methyl-4-oxo-5-pyridazine-3-carboxamidoheptanamido-5-(S)-2-oxopyrrolidin-3-yl-pent-2-enoate] | 12.6 ± 1.8 ×10⁻⁶ cm/s | significantly reduced | 9.3 ± 0.6 µM | 
CCOC(=O)/C=C/[C@H](C[C@@H]1CCNC1=O)NC(=O)[C@@H](CC(=O)[C@@H](NC(=O)c1ccccn1)C(C)C)Cc1ccc(F)cc1 [Compound 5, ethyl-(S,E)-4-(2R,5S)-2-(4-fluorobenzyl)-6-methyl-4-oxo-5-picolinamidoheptanamido-5-(S)-2-oxopyrrolidin-3-yl-pent-2-enoate] | 14.9 ± 3.3 ×10⁻⁶ cm/s | did not exhibit significant antiviral activity | 22.4 ± 3.5 µM | 
CCOC(=O)/C=C/[C@H](C[C@@H]1CCNC1=O)NC(=O)[C@@H](CC(=O)[C@@H](NC(=O)c1nnccc1C)C(C)C)Cc1ccc(F)cc1 [Compound 7, ethyl-(S,E)-4-(2R,5S)-2-(4-fluorobenzyl)-6-methyl-5-(4-methylpyridazine-3-carboxamido)-4-oxoheptanamido-5-(S)-2-oxopyrrolidin-3-yl-pent-2-enoate] | 11.6 ± 2.3 ×10⁻⁶ cm/s | inferior compared to Rupintrivir; also recorded: failed to demonstrate significant antiviral activity | 5.2 ± 1 µM | 
CCOC(=O)/C=C/[C@H](C[C@@H]1CCNC1=O)NC(=O)[C@@H](CC(=O)[C@@H](NC(=O)C(F)(F)F)C(C)C)Cc1ccc(F)cc1 [Compound 9] | 32.7 ± 6.7 ×10⁻⁶ cm/s | exhibited antiviral activity; also recorded: potent antiviral activity | 7.7 ± 0.8 µM | Antiviral activity against Coxsackievirus A6 (in words) [2]: potent antiviral activity; also recorded: demonstrated antiviral activities; Antiviral activity against Echovirus 7 (in words) [3]: potent antiviral activity; also recorded: demonstrated antiviral activities; EC50 ([4]; EV71, RD): 65 nM; Antiviral activity against Coxsackievirus A16 (in words) [5]: potent antiviral activity; also recorded: demonstrated antiviral activities
CCOC(=O)/C=C/[C@H](C[C@@H]1CCNC1=O)NC(=O)[C@@H](CC(=O)[C@@H](NC(=O)C(C)C)C(C)C)Cc1ccc(F)cc1 [Compound 11, ethyl-(S,E)-4-(2R,5S)-2-(4-fluorobenzyl)-5-isobutyramido-6-methyl-4-oxoheptanamido-5-(S)-2-oxopyrrolidin-3-yl-pent-2-enoate] | 16.9 ± 0.8 ×10⁻⁶ cm/s | significantly reduced antiviral activity | 11.7 ± 0.7 µM | 
CCOC(=O)/C=C/[C@H](C[C@@H]1CCNC1=O)NC(=O)[C@@H]1[C@@H](c2ccccc2)CCN1C(=O)[C@@H](NC(=O)c1cc(C)on1)C(C)C [Compound 2] | 7.1 ± 0.9 ×10⁻⁶ cm/s | failed to demonstrate significant antiviral activity; also recorded: weakly active |  | Fold less permeable than Rupintrivir ([1]; pH 7.4): approximately 7 fold; IC50 [6]: 3.2 ± 0.5 µM; Fold more potent than Rupintrivir in the protease inhibition assay ([6]; IC50 compared with Rupintrivir): 2 fold
CCOC(=O)/C=C/[C@H](C[C@@H]1CCNC1=O)NC(=O)[C@@H](CC(=O)[C@@H](NC(=O)c1cccnc1)C(C)C)Cc1ccc(F)cc1 [Compound 6, ethyl-(S,E)-4-(2R,5S)-2-(4-fluorobenzyl)-6-methyl-5-nicotinamido-4-oxoheptanamido-5-(S)-2-oxopyrrolidin-3-yl-pent-2-enoate] | 16.9 ± 5.2 ×10⁻⁶ cm/s | did not exhibit significant antiviral activity | > 100 µM | 
CCOC(=O)/C=C/[C@H](C[C@@H]1CCNC1=O)NC(=O)[C@@H](CC(=O)[C@@H](NC(=O)c1ccc(C)nn1)C(C)C)Cc1ccc(F)cc1 [Compound 8, ethyl-(S,E)-4-(2R,5S)-2-(4-fluorobenzyl)-6-methyl-5-(6-methylpyridazine-3-carboxamido)-4-oxoheptanamido-5-(S)-2-oxopyrrolidin-3-yl-pent-2-enoate] | 12.6 ± 0.7 ×10⁻⁶ cm/s | inferior compared to Rupintrivir; also recorded: failed to demonstrate significant antiviral activity | 3.7 ± 0.6 µM | 
CCOC(=O)/C=C/[C@H](C[C@@H]1CCNC1=O)NC(=O)[C@@H](CC(=O)[C@@H](NC(=O)C(C)(C)C)C(C)C)Cc1ccc(F)cc1 [Compound 10, ethyl-(S,E)-4-(2R,5S)-2-(4-fluorobenzyl)-6-methyl-4-oxo-5-pivalamidoheptanamido-5-(S)-2-oxopyrrolidin-3-yl-pent-2-enoate] | 15 ± 2.6 ×10⁻⁶ cm/s | abrogation of both biochemical and cellular activity | > 100 µM | 
